Data as given in patent US20100047321A1, “SILVER ANTIMICROBIAL COMPOSITION AND USE” (priority 2008, published 2010).

How the values were obtained:
[1] = Settling test of redispersed aqueous silver chloride/gelatin dispersion (silver assay of top samples); format: physicochemical; details: redispersal and testing after storage at 40° C. for 5 days
Method: Samples were analyzed for silver content using an Automated Thioacetamide Titration system (ATT) to assay silver ion (Ag^+) present in silver containing compounds by a potentiometric titration. Silver chloride grains, which have been solubilized in a solution of thiosulfate, sodium hydroxide and gelatin, are titrated with thioacetamide to precipitate silver sulfide. The end-point of the titration is monitored potentiometrically using a silver sulfide-coated silver billet indicator electrode.
[…] To test for settling, the stirring was stopped and a 10 ml portion was removed from the top of the aliquot (time=0 sample).
Additional samples were taken in a similar manner from the unstirred aliquot at 10 minute, 30 minute, and 60 minute intervals. By comparing the theoretical silver chloride concentration (measured on a sample taken from the vigorously stirred dispersion at the conclusion of the precipitation), assuming a perfectly dispersed solution, with that determined by the ATT assay for each sample taken from the top of the aliquot, it is possible to determine the amount of AgCl product that had settled in a given time interval.
The following TABLE I contains the settling data for Invention Examples 1-7 and Comparative Examples 1-10. The settling is evaluated by comparing the silver assay results for samples taken from the top of the aliquot at time=0 or later, to the theoretical silver concentration, such that percent settle is defined by the expression (Theoretical [Ag]−Silver Assay(time))/(Theoretical [Ag]))×100.

Excerpt for pKa of additive: The storage stability additives used in the compositions of this invention are N-heterocyclic acids each having a pKa of from about 4 to about 9 or from about 4.5 to about 8.5, or from about 4.8 to about 8.0.

CC(=O)Nc1cccc(-n2[nH]nnc2=S)c1 [APMT, acetamide, N-(3-(2,5-dihydro-5-thioxo-1H-tetrazol-1-yl)phenyl)-, reference compound]
Effectiveness of additive in reducing settling [1]: ineffective
pKa (pKa of additive): 3.3

Cc1nc2ncnn2c(O)c1Br [Br-TAI, (1,2,4)triazolo(1,5-a)pyrimidin-7-ol, 6-bromo-5-methyl-]
Effectiveness of additive in reducing settling [1]: remarkably effective
pKa (pKa of additive): 4.8

O=[N+]([O-])c1cc(Cl)cc2[nH]nnc12 [CN-BZT, 6-chloro-4-nitro-1H-benzotriazole]
Effectiveness of additive in reducing settling [1]: remarkably effective
pKa (pKa of additive): 6

CSc1nc2nc(C)cc(O)n2n1 [SMe-TAI, (1,2,4)triazolo(1,5-a)pyrimidin-7-ol, 5-methyl-2-(methylthio)-]
Effectiveness of additive in reducing settling [1]: remarkably effective
pKa (pKa of additive): 6.2

O=C1NS(=O)(=O)c2ccccc21 [Saccharin, saccharin, reference compound]
Effectiveness of additive in reducing settling [1]: ineffective
Additive pKa (pKa of additive): 1.8
pKa (pKa of additive): 1.8

O=C1CCC(=O)N1 [Succinimide, succinimide, reference compound]
Effectiveness of additive in reducing settling [1]: ineffective
pKa (pKa of additive): 9.4

Cc1cc(O)n2ncnc2n1.[Na] [TAI, (1,2,4)triazolo(1,5-a)pyrimidin-7-ol, 5-methyl-, sodium salt]
Effectiveness of additive in reducing settling [1]: remarkably effective
pKa (pKa of additive): 6.2

O=c1cc[nH]c(=O)[nH]1 [Uracil, uracil, reference compound]
Effectiveness of additive in reducing settling [1]: ineffective
pKa (pKa of additive): 9.2

O=c1[nH][nH]c(=O)[nH]1 [Urazole, urazole]
Effectiveness of additive in reducing settling [1]: remarkably effective
pKa (pKa of additive): 5.8

O=c1[nH]c(=O)c2[nH]c(=O)[nH]c2[nH]1 [Uric acid, uric acid]
Effectiveness of additive in reducing settling [1]: remarkably effective
pKa (pKa of additive): 5.8

methyl-1H-benzotriazole [Me-BZT]
Effectiveness of additive in reducing settling [1]: remarkably effective
